Assay results published in ChEMBL document CHEMBL1201862, “PubChem BioAssay data set” (2004).
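Exposure lasted 48 hours, with cells grown in 96-well plates and compounds tested at five concentrations. GI50 = concentration required for 50% inhibition of growth.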 Active and inactive are the calls of the source. Rule as the data show it: active = GI50 up to about 1.1 µM and inactive = higher.

Key:
Experiment in all cases: DTP human tumour cell line panel, 48 h
U-251 = system: U-251
MCF7 = system: MCF7
COLO 205 = system: COLO 205
PC-3 = system: PC-3
HL-60 = system: HL-60
A549 = system: A549
MDA-MB-231 = system: MDA-MB-231
CAKI-1 = system: CAKI-1
SR = system: SR
IGROV-1 = system: IGROV-1
RXF 393 = system: RXF 393
HCT-15 = system: HCT-15
SK-MEL-28 = system: SK-MEL-28
HCT-116 = system: HCT-116
Hs-578T = system: Hs-578T
SF-268 = system: SF-268
ACHN = system: ACHN
OVCAR-5 = system: OVCAR-5
HT-29 = system: HT-29
A498 = system: A498
SN12C = system: SN12C
CCRF-CEM = system: CCRF-CEM
SK-MEL-2 = system: SK-MEL-2
TK-10 = system: TK-10
HCC 2998 = system: HCC 2998
UO-31 = system: UO-31
MDA-MB-435 = system: MDA-MB-435
HOP-62 = system: HOP-62
NCI-H522 = system: NCI-H522
DU-145 = system: DU-145
UACC-62 = system: UACC-62
UACC-257 = system: UACC-257
NCI-H23 = system: NCI-H23
SF-295 = system: SF-295
SK-MEL-5 = system: SK-MEL-5
MDA-N = system: MDA-N
NCI-H460 = system: NCI-H460
NCI-H226 = system: NCI-H226
LOX IMVI = system: LOX IMVI
OVCAR-4 = system: OVCAR-4
OVCAR-8 = system: OVCAR-8
786-0 = system: 786-0
SF-539 = system: SF-539
MOLT-4 = system: MOLT-4
T47D = system: T47D
NCI/ADR-RES = system: NCI/ADR-RES
SNB-19 = system: SNB-19
Malme-3M = system: Malme-3M
SK-OV-3 = system: SK-OV-3
KM12 = system: KM12
OVCAR-3 = system: OVCAR-3
HOP-92 = system: HOP-92
SW-620 = system: SW-620
BT-549 = system: BT-549
M14 = system: M14
EKVX = system: EKVX
RPMI-8226 = system: RPMI-8226
SNB-75 = system: SNB-75
K562 = system: K562

C=C1CC(OC(C)=O)/C=C(/C)CCC(C(C)(C)O)CC1O (stereo unspecified)
GI50 (U-251): > 100 µM (inactive) | GI50 (MCF7): > 100 µM (inactive) | GI50 (COLO 205): > 100 µM (inactive) | GI50 (PC-3): > 100 µM (inactive) | GI50 (HL-60): > 100 µM (inactive) | GI50 (A549): > 100 µM (inactive) | GI50 (MDA-MB-231): > 100 µM (inactive) | GI50 (CAKI-1): > 100 µM (inactive) | GI50 (SR): > 100 µM (inactive) | GI50 (IGROV-1): > 100 µM (inactive) | GI50 (RXF 393): > 100 µM (inactive) | GI50 (HCT-15): > 100 µM | GI50 (SK-MEL-28): > 100 µM (inactive) | GI50 (HCT-116): > 100 µM (inactive) | GI50 (Hs-578T): > 100 µM (inactive) | GI50 (SF-268): > 100 µM (inactive) | GI50 (ACHN): > 100 µM (inactive) | GI50 (OVCAR-5): > 100 µM (inactive) | GI50 (HT-29): > 100 µM (inactive) | GI50 (A498): > 100 µM (inactive) | GI50 (SN12C): > 100 µM (inactive) | GI50 (CCRF-CEM): > 100 µM (inactive) | GI50 (SK-MEL-2): > 100 µM (inactive) | GI50 (TK-10): > 100 µM (inactive) | GI50 (HCC 2998): > 100 µM (inactive) | GI50 (UO-31): > 100 µM (inactive) | GI50 (MDA-MB-435): > 100 µM (inactive) | GI50 (HOP-62): > 100 µM (inactive) | GI50 (NCI-H522): > 100 µM (inactive) | GI50 (DU-145): > 100 µM (inactive) | GI50 (UACC-62): > 100 µM (inactive) | GI50 (UACC-257): > 100 µM (inactive) | GI50 (NCI-H23): > 100 µM (inactive) | GI50 (SF-295): > 100 µM (inactive) | GI50 (SK-MEL-5): > 100 µM (inactive) | GI50 (MDA-N): > 100 µM (inactive) | GI50 (NCI-H460): > 100 µM (inactive) | GI50 (NCI-H226): > 100 µM (inactive) | GI50 (LOX IMVI): > 100 µM (inactive) | GI50 (OVCAR-4): > 100 µM (inactive) | GI50 (OVCAR-8): > 100 µM (inactive) | GI50 (786-0): > 100 µM (inactive) | GI50 (SF-539): > 100 µM (inactive) | GI50 (MOLT-4): > 100 µM (inactive) | GI50 (T47D): > 100 µM (inactive) | GI50 (NCI/ADR-RES): > 100 µM (inactive) | GI50 (SNB-19): > 100 µM (inactive) | GI50 (Malme-3M): > 100 µM (inactive) | GI50 (SK-OV-3): > 100 µM (inactive) | GI50 (KM12): > 100 µM (inactive) | GI50 (OVCAR-3): > 100 µM (inactive) | GI50 (HOP-92): > 100 µM (inactive) | GI50 (SW-620): > 100 µM (inactive) | GI50 (BT-549): > 100 µM (inactive) | GI50 (M14): > 100 µM (inactive) | GI50 (EKVX): > 100 µM (inactive)

CC(=O)N1N=C(c2ccc3ccccc3c2O)CC1c1ccc(N(C)C)cc1 (stereo unspecified)
GI50 (U-251): > 100 µM (inactive) | GI50 (RPMI-8226): > 100 µM (inactive) | GI50 (MCF7): > 100 µM (inactive) | GI50 (COLO 205): > 100 µM (inactive) | GI50 (PC-3): > 100 µM (inactive) | GI50 (A549): > 100 µM (inactive) | GI50 (MDA-MB-231): > 100 µM (inactive) | GI50 (CAKI-1): > 100 µM (inactive) | GI50 (SR): 10.9 µM (inactive) | GI50 (IGROV-1): > 100 µM (inactive) | GI50 (RXF 393): > 100 µM (inactive) | GI50 (HCT-15): > 100 µM | GI50 (SK-MEL-28): > 100 µM (inactive) | GI50 (HCT-116): > 100 µM (inactive) | GI50 (Hs-578T): > 100 µM (inactive) | GI50 (SF-268): > 100 µM (inactive) | GI50 (ACHN): > 100 µM (inactive) | GI50 (OVCAR-5): > 100 µM (inactive) | GI50 (HT-29): > 100 µM (inactive) | GI50 (A498): > 100 µM (inactive) | GI50 (SN12C): > 100 µM (inactive) | GI50 (CCRF-CEM): > 100 µM (inactive) | GI50 (SK-MEL-2): > 100 µM (inactive) | GI50 (TK-10): > 100 µM (inactive) | GI50 (HCC 2998): > 100 µM (inactive) | GI50 (UO-31): > 100 µM (inactive) | GI50 (MDA-MB-435): > 100 µM (inactive) | GI50 (HOP-62): > 100 µM (inactive) | GI50 (SNB-75): > 100 µM (inactive) | GI50 (NCI-H522): > 100 µM (inactive) | GI50 (DU-145): > 100 µM (inactive) | GI50 (UACC-62): > 100 µM (inactive) | GI50 (UACC-257): > 100 µM (inactive) | GI50 (NCI-H23): > 100 µM (inactive) | GI50 (SF-295): > 100 µM (inactive) | GI50 (SK-MEL-5): > 100 µM (inactive) | GI50 (MDA-N): > 100 µM (inactive) | GI50 (NCI-H460): > 100 µM (inactive) | GI50 (NCI-H226): > 100 µM (inactive) | GI50 (OVCAR-4): > 100 µM (inactive) | GI50 (OVCAR-8): > 100 µM (inactive) | GI50 (786-0): > 100 µM (inactive) | GI50 (SF-539): > 100 µM (inactive) | GI50 (MOLT-4): > 100 µM (inactive) | GI50 (T47D): > 100 µM (inactive) | GI50 (NCI/ADR-RES): > 100 µM (inactive) | GI50 (Malme-3M): > 100 µM (inactive) | GI50 (SK-OV-3): > 100 µM (inactive) | GI50 (K562): > 100 µM (inactive) | GI50 (KM12): > 100 µM (inactive) | GI50 (OVCAR-3): > 100 µM (inactive) | GI50 (HOP-92): > 100 µM (inactive) | GI50 (SW-620): > 100 µM (inactive) | GI50 (BT-549): > 100 µM (inactive) | GI50 (M14): > 100 µM (inactive)
